Source: ChEMBL document CHEMBL3865816, “Design, synthesis and biological evaluation of novel azaspiro analogs of linezolid as antibacterial and antitubercular agents” (Eur J Med Chem, 2016)
In brackets after ≈: the same amount, converted by molar mass.

What was measured:
Type in all cases: functional
Pseudomonas aeruginosa [1] = experiment: Antibacterial activity against Pseudomonas aeruginosa NCIM 2036 at 3 ug/ml measured after 8 hrs by spectrophotometric method; conditions: NCIM 2036, 8 h
Pseudomonas aeruginosa [2] = experiment: Antibacterial activity against Pseudomonas aeruginosa NCIM 2036 at 30 ug/ml measured after 8 hrs by spectrophotometric method; conditions: NCIM 2036, 8 h
Staphylococcus aureus [3] = experiment: Antibacterial activity against Staphylococcus aureus NCIM 2079 at 3 ug/ml measured after 12 hrs by spectrophotometric method; conditions: NCIM 2079, 12 h
Staphylococcus aureus [4] = experiment: Antibacterial activity against Staphylococcus aureus NCIM 2079 measured after 12 hrs by spectrophotometric method; conditions: NCIM 2079, 12 h
[5] = tested on: Mycobacterium tuberculosis; experiment: Antitubercular activity against dormant stage Mycobacterium tuberculosis H37Ra at 3 ug/ml measured after 12 days by XTT assay; conditions: 288 h
[6] = tested on: Mycobacterium tuberculosis; experiment: Antitubercular activity against dormant stage Mycobacterium tuberculosis H37Ra at 10 ug/ml measured after 12 days by XTT assay; conditions: 288 h
Escherichia coli [7] = experiment: Antibacterial activity against Escherichia coli NCIM 2688 at 3 ug/ml measured after 8 hrs by spectrophotometric method; conditions: NCIM 2688, 8 h
Bacillus subtilis [8] = experiment: Antibacterial activity against Bacillus subtilis NCIM 2010 at 10 ug/ml measured after 12 hrs by spectrophotometric method; conditions: NCIM 2010, 12 h
Escherichia coli [9] = experiment: Antibacterial activity against Escherichia coli NCIM 2688 at 10 ug/ml measured after 8 hrs by spectrophotometric method; conditions: NCIM 2688, 8 h
Staphylococcus aureus [10] = experiment: Antibacterial activity against Staphylococcus aureus NCIM 2079 at 10 ug/ml measured after 12 hrs by spectrophotometric method; conditions: NCIM 2079, 12 h
Escherichia coli [11] = experiment: Antibacterial activity against Escherichia coli NCIM 2688 measured after 8 hrs by spectrophotometric method; conditions: NCIM 2688, 8 h
Staphylococcus aureus [12] = experiment: Antibacterial activity against Staphylococcus aureus NCIM 2079 at 30 ug/ml measured after 12 hrs by spectrophotometric method; conditions: NCIM 2079, 12 h
Bacillus subtilis [13] = experiment: Antibacterial activity against Bacillus subtilis NCIM 2010 at 30 ug/ml measured after 12 hrs by spectrophotometric method; conditions: NCIM 2010, 12 h
Pseudomonas aeruginosa [14] = experiment: Antibacterial activity against Pseudomonas aeruginosa NCIM 2036 measured after 8 hrs by spectrophotometric method; conditions: NCIM 2036, 8 h
Bacillus subtilis [15] = experiment: Antibacterial activity against Bacillus subtilis NCIM 2010 measured after 12 hrs by spectrophotometric method; conditions: NCIM 2010, 12 h
[16] = tested on: Mycobacterium tuberculosis; experiment: Antitubercular activity against dormant stage Mycobacterium tuberculosis H37Ra measured after 12 days by XTT assay; conditions: 288 h
Pseudomonas aeruginosa [17] = experiment: Antibacterial activity against Pseudomonas aeruginosa NCIM 2036 at 10 ug/ml measured after 8 hrs by spectrophotometric method; conditions: NCIM 2036, 8 h
Escherichia coli [18] = experiment: Antibacterial activity against Escherichia coli NCIM 2688 at 30 ug/ml measured after 8 hrs by spectrophotometric method; conditions: NCIM 2688, 8 h
Bacillus subtilis [19] = experiment: Antibacterial activity against Bacillus subtilis NCIM 2010 at 3 ug/ml measured after 12 hrs by spectrophotometric method; conditions: NCIM 2010, 12 h
[20] = tested on: Mycobacterium tuberculosis; experiment: Antitubercular activity against dormant stage Mycobacterium tuberculosis H37Ra at 30 ug/ml measured after 12 days by XTT assay; conditions: 288 h

Compound	inhibition at 3 µg/mL (Pseudomonas aeruginosa [1]) [%]	inhibition at 30 µg/mL (Pseudomonas aeruginosa [2]) [%]	inhibition at 3 µg/mL (Staphylococcus aureus [3]) [%]	IC50 (Staphylococcus aureus [4]) [µg/mL]	MIC (Staphylococcus aureus [4]) [µg/mL]	inhibition at 3 µg/mL [5] [%]	inhibition at 10 µg/mL [6] [%]	inhibition at 3 µg/mL (Escherichia coli [7]) [%]	inhibition at 10 µg/mL (Bacillus subtilis [8]) [%]	inhibition at 10 µg/mL (Escherichia coli [9]) [%]	inhibition at 10 µg/mL (Staphylococcus aureus [10]) [%]	IC50 (Escherichia coli [11]) [µg/mL]	MIC (Escherichia coli [11]) [µg/mL]	inhibition at 30 µg/mL (Staphylococcus aureus [12]) [%]	inhibition at 30 µg/mL (Bacillus subtilis [13]) [%]	IC50 (Pseudomonas aeruginosa [14]) [µg/mL]	MIC (Pseudomonas aeruginosa [14]) [µg/mL]	IC50 (Bacillus subtilis [15]) [µg/mL]	MIC (Bacillus subtilis [15]) [µg/mL]	IC50 [16] [µg/mL]	also measured
O=C(NC[C@H]1CN(c2ccc(N3CC4(COC4)C3)c(F)c2)C(=O)O1)c1cccnc1	40.9	56.3	78.2	1.03 (≈ 2.5 µM)	18.3 (≈ 44.3 µM)	3.2	5.21	84.8	77.1	90.5	85.9	0.67 (≈ 1.62 µM)	8.33 (≈ 20.2 µM)	96.2	99.2	> 100	> 100	> 100	> 100	> 100	MIC [16]: > 100 µg/mL; inhibition at 10 µg/mL (Pseudomonas aeruginosa [17]): 49.5%; inhibition at 30 µg/mL (Escherichia coli [18]): 94.8%; inhibition at 3 µg/mL (Bacillus subtilis [19]): 60.8%; inhibition at 30 µg/mL [20]: 63.1%
O=C1O[C@@H](CNS(=O)(=O)c2cc([N+](=O)[O-])ccc2Cl)CN1c1ccc(N2CC3(COC3)C2)c(F)c1	-6.17	68.6	42	> 100	> 100	24.4	29.2	2.37	62.1	15.8	55	> 100	> 100	89.5	88.4	> 100	> 100	> 100	> 100	> 100	MIC [16]: > 100 µg/mL; inhibition at 10 µg/mL (Pseudomonas aeruginosa [17]): 38.6%; inhibition at 30 µg/mL (Escherichia coli [18]): 49.6%; inhibition at 3 µg/mL (Bacillus subtilis [19]): 47%; inhibition at 30 µg/mL [20]: 59.6%
O=C1O[C@@H](CNC(=S)Nc2cccc(C(F)(F)F)c2)CN1c1ccc(N2CC3(COC3)C2)c(F)c1	45.2	79.6	64.1	> 100	> 100	10.7	44.5	93.3	80.2	95.8	79.2	0.49 (≈ 0.96 µM)	2.41 (≈ 4.72 µM)	94.5	97.2	> 100	> 100	> 100	> 100	> 100	MIC [16]: > 100 µg/mL; inhibition at 10 µg/mL (Pseudomonas aeruginosa [17]): 67%; inhibition at 30 µg/mL (Escherichia coli [18]): 96.3%; inhibition at 3 µg/mL (Bacillus subtilis [19]): 65.9%; inhibition at 30 µg/mL [20]: 78%
